Data as given in paper PMC6812009, “Covalent Aurora A regulation by the metabolic integrator coenzyme A” (Redox Biology, 2019).
Numbering of substitutions follows the chain as printed. Values belong to the molecule of their own block, whether it stands above or below them.

How the values were obtained:
mouse oocytes = test: Microinjection of mouse oocytes, spindle formation and chromosome alignment; assay type: cell-based; conditions: injected with 3 mM compound, 17 h after GV release
Description: Mouse oocytes arrested at the GV stage were injected with different concentrations of CoA (0.15–5 mM). Since the commercial preparation of CoA used for microinjection contained 3 mol of lithium ions per mole of CoA, control oocytes were injected with an equivalent amount of LiCl. In a separate study, oocytes were injected with 3 mM CoA, ADP, AMP, 3′-5′-ADP and pantetheine. To examine the effect of injected compounds on spindle formation, oocytes were fixed 17 h after GV release and stained for alpha-tubulin (green) and DNA (blue).

C290A Aurora A = target: T1, C290A Aurora A (Homo sapiens, UniProt O14965, C290A); test: Thermal shift assay (differential scanning fluorimetry); assay type: binding; conditions: 5 mM ATP or 5 mM CoA
T1 construct: For enzyme and DSF assays, full-length human Aurora A and Aurora B and 1–43 TPX2 were produced; made in house; host or cells: E. coli BL21 (DE3) pLysS
T1 sequence (O14965 whole entry C290A): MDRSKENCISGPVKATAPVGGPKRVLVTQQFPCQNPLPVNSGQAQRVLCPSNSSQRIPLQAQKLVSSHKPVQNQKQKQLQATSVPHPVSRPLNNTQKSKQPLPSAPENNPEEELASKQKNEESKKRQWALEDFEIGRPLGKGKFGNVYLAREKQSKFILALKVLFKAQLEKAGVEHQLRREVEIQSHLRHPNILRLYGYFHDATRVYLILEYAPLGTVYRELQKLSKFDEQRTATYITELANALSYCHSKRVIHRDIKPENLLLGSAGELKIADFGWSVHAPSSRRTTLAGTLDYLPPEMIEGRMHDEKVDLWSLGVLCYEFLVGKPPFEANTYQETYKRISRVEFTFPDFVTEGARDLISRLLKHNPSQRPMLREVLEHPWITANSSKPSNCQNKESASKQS
Description: (§1) Asp274Asn and Thr217Glu Aurora A mutants were generated by PCR-site directed mutagenesis, expressed and purified as described previously. Cys290Ala Aurora A was generated using standard procedures, and purified as described.
(§2) Thermal-shift assays were performed with a StepOnePlus Real-Time PCR machine (Life Technologies) using Sypro-Orange dye (Invitrogen) and thermal ramping (0.3 °C in step intervals between 25 and 94 °C). All proteins were diluted to a final concentration of 5 μM in 50 mM Tris/HCl, pH 7.4 and 100 mM NaCl in the presence or absence of the indicated concentrations of ligand (final DMSO concentration no higher than 4 % v/v). CoA, dephosphoCoA or kinase inhibitors diluted from 10 mM DMSO stocks were assayed as described previously. Normalized data were processed using the Boltzmann equation to generate sigmoidal denaturation curves, and average Tm/ΔTm values calculated as previously described using GraphPad Prism software.

T217E Aurora A = target: T2, T217E Aurora A (Homo sapiens, UniProt O14965, T217E); test: as above; assay type: binding; conditions: 5 mM ATP, 5 mM CoA or 0.1 mM MLN8237
T2 construct: For enzyme and DSF assays, full-length human Aurora A and Aurora B and 1–43 TPX2 were produced; made in house; host or cells: E. coli
T2 sequence (O14965 1-403 T217E): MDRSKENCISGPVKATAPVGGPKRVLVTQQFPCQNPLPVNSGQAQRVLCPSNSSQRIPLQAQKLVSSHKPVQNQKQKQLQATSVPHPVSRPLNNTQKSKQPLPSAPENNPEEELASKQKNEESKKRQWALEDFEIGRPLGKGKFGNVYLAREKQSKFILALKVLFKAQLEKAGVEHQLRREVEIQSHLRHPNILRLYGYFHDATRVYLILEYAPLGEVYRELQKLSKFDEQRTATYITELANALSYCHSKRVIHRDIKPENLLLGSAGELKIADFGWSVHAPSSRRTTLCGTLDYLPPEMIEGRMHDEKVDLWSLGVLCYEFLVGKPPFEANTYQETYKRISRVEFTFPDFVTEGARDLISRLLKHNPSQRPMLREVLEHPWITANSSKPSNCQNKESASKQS
Description: as §1, §2

[1] = target: T3, WT Aurora A (T288 phosphorylated, active) (Homo sapiens, UniProt O14965); test: as above; assay type: binding; conditions: 5 mM ATP, 5 mM CoA or 0.1 mM MLN8237; for CoA dependent on non-reducing conditions
T3 construct: Bacterially expressed full-length His-Aurora A was used to determine the IC50 value for CoA; made in house; host or cells: E. coli BL21 (DE3) pLysS
T3 sequence (O14965 1-403): T2 sequence (O14965 1-403 T217E) with E217T
Description: as §1, §2

[2] = target: T4, kinase-dead D274N (inactive) Aurora A (Homo sapiens, UniProt O14965, D274N); test: as above; assay type: binding; conditions: 5 mM ATP or 5 mM CoA; CoA DTT-dependent
T4 construct: For enzyme and DSF assays, full-length human Aurora A and Aurora B and 1–43 TPX2 were produced; 6His (N); made in house; host or cells: E. coli
T4 sequence (O14965 whole entry D274N): as the sequence (O14965 whole entry C290A) above, with D274N, A290C counted along it
Description: as §1, §2

[3] = target: T5, Aurora A (active), T288 phosphorylated (Homo sapiens, UniProt O14965); test: Lanthascreen Eu Kinase FRET binding assay; conditions: T288 phosphorylated Aurora A; read-out: Aurora A (active) IC50 (μM), binding assay
T5 construct: For enzyme and DSF assays, full-length human Aurora A and Aurora B and 1–43 TPX2 were produced; made in house; host or cells: E. coli
T5 sequence (O14965 1-403): T2 sequence (O14965 1-403 T217E) with E217T
Description: (§3) A Lanthascreen Eu Kinase FRET Binding Assay (Invitrogen) was employed to determine IC50 values for the interaction of Aurora A with CoA, dpCoA, ATP, and ADP. […] Recombinant Aurora A was incubated with Europium-conjugated anti-histidine tag antibody and an Alexa Fluor 647-labelled tracer, which binds to the ATP binding pocket of Aurora A. The close proximity of the anti-histidine (epitope-tag) antibody and the tracer results in a high degree of FRET (fluorescence resonance energy transfer) from the europium donor fluorophore to the Alexa Fluor 647 acceptor fluorophore. ATP-competitive inhibitors, such as CoA, displace the tracer from the active site, causing a loss of FRET signal. Assay set-up was performed as described by the manufacturer. Briefly, the time-resolved fluorescence resonance energy transfer assay (TR-FRET) was performed in black, low volume 384 well plates (Corning). Each well contained 5 nM kinase, 2 nM Eu-anti-His antibody and 10 nM kinase tracer 236 in kinase buffer A (50 mM Hepes pH 7.5, 10 mM MgCl2, 1 mM […], 0.01% (v/v) Brij-35), varying amounts of CoA, dpCoA, ATP, and ADP. The reaction mix was incubated for 1h at room temperature. The signal was measured at 665/620 nm emission ratio using BMG LABTECH plate reader (PHERAstar). All assays were performed using duplicates. The 11-point response curves were generated using GraphPad Prism software from the inhibition data generated.

[4] = target: T6, Aurora A (inactive), unphosphorylated (PP1-treated) (Homo sapiens, UniProt O14965); test: Lanthascreen Eu Kinase FRET binding assay
T6 construct: For enzyme and DSF assays, full-length human Aurora A and Aurora B and 1–43 TPX2 were produced; made in house; host or cells: E. coli
T6 sequence (O14965 1-403): T2 sequence (O14965 1-403 T217E) with E217T
Description: as §3

Aurora A (active) = target: T7, Aurora A (active) (Homo sapiens, UniProt O14965); test: In vitro Aurora A kinase assay (γ33P-ATP incorporation into myelin basic protein); assay type: biochemical; conditions: 5 μM ATP, absence of DTT; read-out: IC50, Aurora A kinase activity
T7 construct: Bacterially expressed full-length His-Aurora A was used to determine the IC50 value for CoA; made in house; host or cells: E. coli BL21 (DE3) pLysS
T7 sequence (O14965 1-403): T2 sequence (O14965 1-403 T217E) with E217T
Description: Profiling of 117 protein kinases with CoA, dpCoA and ADP was carried out at the International Centre for Protein Kinase Profiling at the University of Dundee. Each compound was tested in vitro, in duplicate, at 100 μM final concentration using recombinant kinases, model substrates and optimal concentrations of ATP. Bacterially expressed full-length His-Aurora A was used to determine the IC50 value for CoA (in the presence or absence of DTT), dpCoA, ADP and desulfo-CoA. The assay was performed in the presence of 5 μM competing ATP. To examine whether the inhibitory effect of CoA on Aurora A is modulated by TPX2, IC50 values for CoA were also generated in the presence and absence of 1 μg TPX2 (residues 1–43) fragment.
Aurora A kinase activity was assayed by measuring incorporation of γ^33P-ATP into myelin basic protein (Sigma). Purified recombinant protein (100 ng) was incubated at room temperature for 30 min in a total volume of 15 μl containing 50 mM HEPES pH 7.5, 10 mM MgCl2, 1 mM EGTA, 0.05% Brij-35, 0.5 mg/ml myelin basic protein, and 5 μM γ^33P-ATP (100–10,000 dpm/pmol). The reaction was stopped by spotting the reaction mixture onto squares of P81 phosphocellulose ion exchange paper (Whatmann), which were then immersed in 1.5% (v/v) phosphoric acid. After washing twice in 1% phosphoric acid followed by two washes in distilled water, the papers were air dried and radioactivity was counted by a scintillation counter and recorded by Quantasmart version 2.03.

[5] = test system: FLAG-tagged Aurora A in HEK293/Pank1β cells; test: Aurora A Thr 288 phosphorylation and dimerization in cells treated with oxidising agents (immunoblot); assay type: cell-based, human; conditions: 30 min treatment; for Formation of Aurora A dimers in cells: non-reducing conditions; for Aurora A phosphorylation at Thr 288 in cells: samples separated in the presence of DTT
[6] = test system: FLAG-tagged Aurora A in HEK293/Pank1β cells; test: Aurora A CoAlation in cells treated with oxidising agents (FLAG immunoprecipitation, anti-CoA immunoblot); assay type: cell-based, human; conditions: 30 min; 250 μM H2O2, 500 μM diamide, 50 μM menadione, 10 μM phenylarsine oxide
[7] = target: T8, FLAG-tagged WT Aurora A (human), O14965; test: non-reducing SDS-PAGE and immunoblot of an anti-FLAG immunoprecipitate; FLAG-Aurora A immunoprecipitated from HEK293/Pank1β cells treated 30 min with oxidising agents (250 μM H2O2, 500 μM diamide, 50 μM menadione, 10 μM phenylarsine oxide, 1 μM rotenone); SDS-PAGE under reducing and non-reducing conditions; blots with anti-FLAG and anti-pT288; dimers seen under non-reducing conditions; conditions: remark: other sources report otherwise
T8 chain: T2 sequence (O14965 1-403 T217E) with E217T

[8] = target: T9, purified Aurora A (human), O14965; test: non-reducing SDS-PAGE; purified Aurora A briefly exposed to peroxide; reducing compared with non-reducing SDS-PAGE; dimer sensitive to DTT; conditions: remark: other sources report otherwise
T9 chain: T2 sequence (O14965 1-403 T217E) with E217T

Molecule: CC(C)(CO)[C@@H](O)C(=O)NCCC(=O)NCCS [pantetheine]
Disruption of bipolar spindle formation and chromosome alignment (mouse oocytes): not

Ligand binding / thermal stabilization (C290A Aurora A): still bound | Ligand-induced thermal shift (T217E Aurora A): stabilization | Change in thermal stability (ΔTm) [1]: marked change in thermal stability | Ligand interaction by thermal shift [2]: severely blunted | IC50 [3]: 0.2 µM | IC50 [4]: 3 µM
Molecule: Nc1ncnc2c1ncn2[C@@H]1O[C@H](COP(=O)(O)OP(=O)(O)OP(=O)(O)O)[C@@H](O)[C@H]1O [ATP]

IC50 (Aurora A (active)): 160000 nM
Molecule: CCNC(=O)CCNC(=O)[C@H](O)C(C)(C)COP(=O)(O)OP(=O)(O)OC[C@H]1O[C@@H](n2cnc3c(N)ncnc32)[C@H](O)[C@@H]1OP(=O)(O)O [desulfo-CoA]

Molecule: CC1=CC(=O)c2ccccc2C1=O [menadione]
Formation of Aurora A dimers in cells [5]: clearly observed | Aurora A phosphorylation at Thr 288 in cells [5]: promoted an increase

Molecule: Nc1ncnc2c1ncn2[C@@H]1O[C@H](COP(=O)(O)O)[C@@H](O)[C@H]1O [AMP]
Disruption of bipolar spindle formation and chromosome alignment (mouse oocytes): not

Molecule: COc1cc(Nc2ncc3c(n2)-c2ccc(Cl)cc2C(c2c(F)cccc2OC)=NC3)ccc1C(=O)O [MLN8237, alisertib]
Ligand-induced thermal shift (T217E Aurora A): stabilization | Change in thermal stability (ΔTm) [1]: marked change in thermal stability

Molecule: CN(C)C(=O)/N=N/C(=O)N(C)C [diamide]
Formation of Aurora A dimers in cells [5]: clearly observed | Aurora A phosphorylation at Thr 288 in cells [5]: promoted an increase | CoAlation of transiently expressed Aurora A in cells [6]: strongly induced

Molecule: OO [hydrogen peroxide]
Formation of Aurora A dimers in cells [5]: clearly observed | Aurora A phosphorylation at Thr 288 in cells [5]: promoted an increase

stoichiometry N [7]: 2
B1: FLAG-tagged WT Aurora A, O14965 1-403 (enzyme)
chain: T2 sequence (O14965 1-403 T217E) with E217T
modifications: here or on the partner: phosphothreonine at 288 (detected with anti-pT288 antibody after oxidising agents); phosphothreonine at 288 (detected with anti-pT288 antibody after oxidising agents)

stoichiometry N [8]: 2
B2: purified Aurora A, O14965 1-403 (enzyme)
chain: T2 sequence (O14965 1-403 T217E) with E217T
